PubChem BioAssay (NCI)
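Protocol summary: plate cells (96-well), add compound at 5 concentrations, incubate 48 h, interpolate endpoints linearly. TGI: concentration producing complete growth inhibition.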

Assays:
Experiment in all cases: growth of human tumour cells (NCI), 48 h
[1] = test system: MDA-MB-231 breast
[2] = test system: OVCAR-5 ovarian
[3] = test system: SF-539 CNS
[4] = test system: OVCAR-3 ovarian
[5] = test system: HCC-2998 colon
[6] = test system: PC-3 prostate
[7] = test system: A549 NSCLC
[8] = test system: NCI-H226 lung
[9] = test system: MCF7 breast
[10] = test system: SN12C renal
[11] = test system: RXF 393 renal
[12] = test system: HL-60(TB) leukemia
[13] = test system: HS 578T breast
[14] = test system: SK-MEL-5 melanoma
[15] = test system: SK-MEL-28 melanoma
[16] = test system: NCI/ADR-RES ovarian
[17] = test system: UO-31 renal
[18] = test system: SK-MEL-2 melanoma
[19] = test system: HT29 colon
[20] = test system: NCI-H460 lung
[21] = test system: CAKI-1 renal
[22] = test system: U251 CNS
[23] = test system: HCT-116 colon
[24] = test system: SF-295 CNS
[25] = test system: SR leukemia
[26] = test system: SNB-19 CNS
[27] = test system: UACC-62 melanoma
[28] = test system: SW-620 colon
[29] = test system: UACC-257 melanoma
[30] = test system: NCI-H522 lung
[31] = test system: ACHN renal
[32] = test system: HOP-92 NSCLC
[33] = test system: K-562 leukemia
[34] = test system: LOX IMVI melanoma
[35] = test system: IGROV1 ovarian
[36] = test system: NCI-H23 lung
[37] = test system: SNB-75 CNS
[38] = test system: HCT-15 colon
[39] = test system: HOP-62 NSCLC
[40] = test system: CCRF-CEM leukemia
[41] = test system: EKVX NSCLC
[42] = test system: OVCAR-4 ovarian
[43] = test system: T-47D breast
[44] = test system: COLO 205 colon
[45] = test system: SK-OV-3 ovarian
[46] = test system: MDA-MB-435
[47] = test system: KM12 colon
[48] = test system: DU-145 prostate
[49] = test system: SF-268 CNS
[50] = test system: M14 melanoma
[51] = test system: MOLT-4 leukemia
[52] = test system: MDA-N
[53] = test system: TK-10 renal
[54] = test system: RPMI-8226 leukemia
[55] = test system: OVCAR-8 ovarian
[56] = test system: 786-0 renal
[57] = test system: MALME-3M melanoma
[58] = test system: A498 renal
[59] = test system: BT-549 breast

COc1ccc(Nc2nc3ccccc3nc2-c2cccs2)cc1OC
TGI [1]: > 10 µM | TGI [2]: > 10 µM | TGI [3]: > 10 µM | TGI [4]: > 10 µM | TGI [5]: > 10 µM | TGI [6]: > 10 µM | TGI [7]: > 10 µM | TGI [8]: > 10 µM | TGI [9]: > 10 µM | TGI [10]: > 10 µM | TGI [11]: > 10 µM | TGI [12]: > 10 µM | TGI [13]: > 10 µM | TGI [14]: > 10 µM | TGI [15]: > 10 µM | TGI [16]: > 10 µM | TGI [17]: > 10 µM | TGI [18]: > 10 µM | TGI [19]: > 10 µM | TGI [20]: > 10 µM | TGI [21]: > 10 µM | TGI [22]: > 10 µM | TGI [23]: > 10 µM | TGI [24]: > 10 µM | TGI [25]: > 10 µM | TGI [26]: > 10 µM | TGI [27]: > 10 µM | TGI [28]: > 10 µM | TGI [29]: > 10 µM | TGI [30]: > 10 µM | TGI [31]: > 10 µM | TGI [32]: > 10 µM | TGI [33]: > 10 µM | TGI [34]: > 10 µM | TGI [35]: > 10 µM | TGI [36]: > 10 µM | TGI [37]: > 10 µM | TGI [38]: > 10 µM | TGI [39]: > 10 µM | TGI [40]: > 10 µM | TGI [41]: > 10 µM | TGI [42]: > 10 µM | TGI [43]: > 10 µM | TGI [44]: > 10 µM | TGI [45]: > 10 µM | TGI [46]: > 10 µM | TGI [47]: > 10 µM | TGI [48]: > 10 µM | TGI [49]: > 10 µM | TGI [50]: > 10 µM | TGI [51]: > 10 µM | TGI [52]: > 10 µM | TGI [53]: > 10 µM | TGI [54]: > 10 µM | TGI [55]: > 10 µM | TGI [56]: > 10 µM

C/C(=C\CCC1=CC(=O)OC1)CCC1C2C(=O)CC(C)[C@@]3(C)CC[C@]1(C)[C@@]23C (stereo not given in full)
TGI [1]: > 10 µM | TGI [5]: > 10 µM | TGI [6]: > 10 µM | TGI [7]: > 10 µM | TGI [9]: > 10 µM | TGI [10]: > 10 µM | TGI [11]: > 10 µM | TGI [12]: > 10 µM | TGI [14]: > 10 µM | TGI [15]: > 10 µM | TGI [19]: > 10 µM | TGI [21]: > 10 µM | TGI [24]: > 10 µM | TGI [25]: > 10 µM | TGI [27]: > 10 µM | TGI [28]: > 10 µM | TGI [29]: > 10 µM | TGI [33]: > 10 µM | TGI [34]: > 10 µM | TGI [35]: > 10 µM | TGI [36]: > 10 µM | TGI [37]: > 10 µM | TGI [38]: > 10 µM | TGI [39]: > 10 µM | TGI [40]: > 10 µM | TGI [41]: > 10 µM | TGI [43]: > 10 µM | TGI [44]: > 10 µM | TGI [45]: > 10 µM | TGI [47]: > 10 µM | TGI [48]: > 10 µM | TGI [49]: > 10 µM | TGI [50]: > 10 µM | TGI [51]: > 10 µM | TGI [52]: > 10 µM | TGI [57]: > 10 µM | TGI [53]: > 10 µM | TGI [54]: > 10 µM | TGI [55]: > 10 µM | TGI [56]: > 10 µM

COC(=O)c1sc2nc(Nc3ccccc3)c(=Nc3ccccc3)sc2c1C
TGI [1]: > 100 µM | TGI [58]: > 100 µM | TGI [2]: > 100 µM | TGI [3]: > 100 µM | TGI [5]: > 100 µM | TGI [6]: > 100 µM | TGI [7]: > 100 µM | TGI [8]: > 100 µM | TGI [10]: > 100 µM | TGI [11]: 80.5 µM | TGI [12]: > 100 µM | TGI [13]: > 100 µM | TGI [14]: > 100 µM | TGI [15]: > 100 µM | TGI [16]: > 100 µM | TGI [17]: > 100 µM | TGI [18]: > 100 µM | TGI [19]: > 100 µM | TGI [20]: > 100 µM | TGI [21]: > 100 µM | TGI [22]: > 100 µM | TGI [23]: > 100 µM | TGI [24]: > 100 µM | TGI [25]: > 100 µM | TGI [26]: > 100 µM | TGI [27]: > 100 µM | TGI [28]: > 100 µM | TGI [29]: > 100 µM | TGI [30]: > 100 µM | TGI [31]: > 100 µM | TGI [32]: 92 µM | TGI [33]: > 100 µM | TGI [34]: > 100 µM | TGI [35]: > 100 µM | TGI [36]: > 100 µM | TGI [37]: > 100 µM | TGI [38]: > 100 µM | TGI [39]: > 100 µM | TGI [40]: > 100 µM | TGI [41]: > 100 µM | TGI [42]: > 100 µM | TGI [43]: > 100 µM | TGI [44]: > 100 µM | TGI [45]: > 100 µM | TGI [46]: > 100 µM | TGI [47]: > 100 µM | TGI [48]: > 100 µM | TGI [49]: > 100 µM | TGI [51]: > 100 µM | TGI [52]: > 100 µM | TGI [57]: > 100 µM | TGI [53]: > 100 µM | TGI [54]: > 100 µM | TGI [55]: > 100 µM | TGI [56]: > 100 µM

C[C@]12C(=O)OC[C@H](c3ccccc3)N1C(=O)N(Cc1ccccc1)[C@@H]2CO
TGI [1]: > 100 µM | TGI [58]: > 100 µM | TGI [2]: > 100 µM | TGI [3]: > 100 µM | TGI [4]: > 100 µM | TGI [5]: > 100 µM | TGI [6]: > 100 µM | TGI [7]: > 100 µM | TGI [8]: > 100 µM | TGI [9]: > 100 µM | TGI [10]: > 100 µM | TGI [11]: > 100 µM | TGI [12]: > 100 µM | TGI [13]: > 100 µM | TGI [14]: > 100 µM | TGI [15]: > 100 µM | TGI [16]: > 100 µM | TGI [17]: > 100 µM | TGI [18]: > 100 µM | TGI [19]: > 100 µM | TGI [20]: > 100 µM | TGI [21]: > 100 µM | TGI [23]: > 100 µM | TGI [24]: > 100 µM | TGI [25]: > 100 µM | TGI [26]: > 100 µM | TGI [27]: > 100 µM | TGI [28]: > 100 µM | TGI [29]: > 100 µM | TGI [31]: > 100 µM | TGI [32]: > 100 µM | TGI [33]: > 100 µM | TGI [34]: > 100 µM | TGI [35]: > 100 µM | TGI [37]: > 100 µM | TGI [38]: > 100 µM | TGI [39]: > 100 µM | TGI [40]: > 100 µM | TGI [41]: > 100 µM | TGI [42]: > 100 µM | TGI [44]: > 100 µM | TGI [45]: > 100 µM | TGI [46]: > 100 µM | TGI [47]: > 100 µM | TGI [48]: > 100 µM | TGI [49]: > 100 µM | TGI [50]: > 100 µM | TGI [51]: > 100 µM | TGI [52]: > 100 µM | TGI [59]: > 100 µM | TGI [57]: > 100 µM | TGI [53]: > 100 µM | TGI [55]: > 100 µM | TGI [56]: > 100 µM
